The values below come from US4338122A, “Biocidal 2-aryl-1,3-cyclopentanedione compounds and alkali metal and ammonium salts thereof” (Union Carbide Corporation, priority 1980, dated 1982).

One assay relates to Perennial rye grass. Description: Preliminary herbicide seed germination test (pre-emergent), rye grass. Further details: key: 5: no seedling emerged; 4: few seedlings emerged and/or very severe stunting; 3: moderate reduction in stand and/or moderate stunting; 2: very slight reduction in stand and/or slight stunting; 1: no injury; seedlings appear no different with respect to stand or growth than untreated controls. The conditions noted are these: ten to twelve days after application. The class given is in vivo, Solium perenne. As to the method:
(§1) Suspensions of the test compounds were prepared by dissolving one gram of compound in 50 milliliters of acetone in which had been dissolved 0.1 gram (10 percent of the weight of compound) of an alkylphenoxyethoxyethanol surfactant, as an emulsifying or dispersing agent. The resulting solution was mixed into 160 milliliters of water to give roughly 200 milliliters of a suspension containing the compound in finely divided form. The thus prepared stock suspension contained 0.5 percent by weight of compound. The test concentrations employed in the tests described herein below were obtained by diluting the stock suspension with water. The test procedures were as follows:
(§2) The following seeds were used in this test:
Perennial rye grass--Solium perenne
(§3) Two soil-seed mixtures were prepared as follows:
(§4) Each of the above mixtures was rolled separately in 5 gallon containers for approximately one-half hour on ball mill to insure uniform mixing of seeds and soil. For each compound four 3-inch pots were filled with soil to within 11/2 inches of top of pots. To two of these pots were added 70 cc. of Mixture I. To the remaining 2 pots were added 70 cc. of Mixture II. The seed-soil mixture was tamped firmly, and the pots were removed to the green-house and watered lightly. About 2 hours after planting, 25 milliliters of the test formulation were added to one pot containing Mixture I and one pot containing Mixture II. An equal volume of a water solution containing acetone and an emulsifier in the same concentration as the herbicidal mixture but without the candidate herbicide was also added to each of the soil-seed mixtures. These pots are used as check or control units. The test compounds were formulated by diluting the stock suspension with water to obtain the desired concentration of the compound in parts per million of the final formulation. Each compound was tested at the same concentration. […] Ratings were made according to the following designations:
(§5) Tests were conducted in accordance with the procedures given at pages 32 to 37 supra. The results are expressed in the same manner as used in Table I, except with respect to miticidal activity. For mite adult and mite egg comparison purposes, results are given in parts per million (ppm) required for a 50 percent kill of mites or eggs, respectively.

Another assay deals with Corn. Description: Post-emergent herbicidal test, corn. The class given is in vivo. Further details: key: 1: no perceptible injury; 2: intermediate degrees of injury based upon the number and extent to which leaves were injured; 3: intermediate degrees of injury based upon the number and extent to which leaves were injured; 4: intermediate degrees of injury based upon the number and extent to which leaves were injured; 5: the plant was dead. The conditions noted are these: 2500 parts per million, after ten days. The method, then: as §1
(§6) Experiments were also conducted to determine the phytotoxicity of representative compositions with respect to healthy fresh plants. Solutions of the compounds were prepared as described above to provide a concentration of 2500 parts per million of the test compound. The test plants were sprayed in accordance with the procedure described above for the Mite Foliage Spray Test so as to deliver approximately 100 milliliters of test solutions to the leaves of each plant tested. The sprayed plants and controls were set aside for approximately one hour to allow the solutions to dry and were then placed in the greenhouse. After ten days the plants were visually inspected to determine the extent of foliage injury. A rating of 1 indicates no perceptible injury; 5 indicates the plant was dead and ratings of 2, 3 and 4 indicate intermediate degrees of injury based upon the number and extent to which leaves were injured.
as §5

For a further assay, the system named is Cotton. Description: Post-emergent herbicidal test, cotton. In kind it is in vivo. Further details: key: 1: no perceptible injury; 2: intermediate degrees of injury based upon the number and extent to which leaves were injured; 3: intermediate degrees of injury based upon the number and extent to which leaves were injured; 4: intermediate degrees of injury based upon the number and extent to which leaves were injured; 5: the plant was dead. The conditions noted are these: 2500 parts per million, after ten days. The method, then: as §1, §6, §5

Another assay has as its system Tomato. Description: Post-emergent herbicidal test, tomato. In kind it is in vivo. The arrangement: key: 1: no perceptible injury; 2: intermediate degrees of injury based upon the number and extent to which leaves were injured; 3: intermediate degrees of injury based upon the number and extent to which leaves were injured; 4: intermediate degrees of injury based upon the number and extent to which leaves were injured; 5: the plant was dead. The conditions noted are these: 2500 parts per million, after ten days. The method, then: as §1, §6, §5

For a further assay, the system named is Crabgrass. Description: Preliminary herbicide seed germination test (pre-emergent), crabgrass. In kind it is in vivo, Digitaria sanguinalis. The arrangement: key: 5: no seedling emerged; 4: few seedlings emerged and/or very severe stunting; 3: moderate reduction in stand and/or moderate stunting; 2: very slight reduction in stand and/or slight stunting; 1: no injury; seedlings appear no different with respect to stand or growth than untreated controls. The conditions noted are these: ten to twelve days after application. As to the method:
as §1, §2
Crabgrass--Digitaria sanguinalis
as §3, §4, §5

Another assay deals with Mustard. Description: Preliminary herbicide seed germination test (pre-emergent), mustard. The conditions noted are these: ten to twelve days after application. The class given is in vivo, Brassica pincea var. foliosa (Florida broadleaf). Further details: key: 5: no seedling emerged; 4: few seedlings emerged and/or very severe stunting; 3: moderate reduction in stand and/or moderate stunting; 2: very slight reduction in stand and/or slight stunting; 1: no injury; seedlings appear no different with respect to stand or growth than untreated controls. The method, then:
as §1, §2
Mustard--Brassica pincea var. foliosa (Florida broadleaf)
as §3
as §4, with “designations: […]” for “designations:”

Assay [1] relates to Red root pigweed (Amaranthus). Description: Preliminary herbicide seed germination test (pre-emergent), Amaranthus. The conditions noted are these: ten to twelve days after application. In kind it is in vivo, Amaranthus retroflexus. Further details: key: 5: no seedling emerged; 4: few seedlings emerged and/or very severe stunting; 3: moderate reduction in stand and/or moderate stunting; 2: very slight reduction in stand and/or slight stunting; 1: no injury; seedlings appear no different with respect to stand or growth than untreated controls. As to the method: as §1, §2
Red root pigweed--Amaranthus retroflexus
as §3, §4, §5

The subject of the next assay is Bean. Description: Post-emergent herbicidal test, bean. In kind it is in vivo. Further details: key: 1: no perceptible injury; 2: intermediate degrees of injury based upon the number and extent to which leaves were injured; 3: intermediate degrees of injury based upon the number and extent to which leaves were injured; 4: intermediate degrees of injury based upon the number and extent to which leaves were injured; 5: the plant was dead. The conditions noted are these: 2500 parts per million, after ten days. The method, then:
as §1, §6, §5

For `Cc1ccc(C)c(C2C(=O)c3ccccc3C2=O)c1` [Reference II Page 146, Compound 6, reference compound], the “Pre-emergent Herbicidal, Rye (injury rating)” value (shortened to “Pre-emergent Herbicidal, Rye”) in the assay on Perennial rye grass (Table II) is recorded as 1. In addition, the “Post-Emergent Herbicidal, Corn (injury rating)” value (“Post-Emergent Herbicidal, Corn” below) in the assay with Corn (Table II) amounted to 1. Moreover, the “Post-Emergent Herbicidal, Cotton (injury rating)” value (“Post-Emergent Herbicidal, Cotton” below) with Cotton (Table II) is 1. The “Post-Emergent Herbicidal, Tomato (injury rating)” value (from here on “Post-Emergent Herbicidal, Tomato”) with Tomato (Table II) came to 1. The “Pre-emergent Herbicidal, Crabgrass (injury rating)” value (shortened to “Pre-emergent Herbicidal, Crabgrass”) with Crabgrass (Table II) was determined as 1. In the assay on Mustard (Table II), the “Pre-emergent Herbicidal, Mustard (injury rating)” value (from here on “Pre-emergent Herbicidal, Mustard”) was found to be 1. Moreover, the “Pre-emergent Herbicidal, Amaranthus (injury rating)” value (shortened to “Pre-emergent Herbicidal, Amaranthus”) in assay [1] (Table II) is on record as 1. The “Post-Emergent Herbicidal, Bean (injury rating)” value (shortened to “Post-Emergent Herbicidal, Bean”) in the assay with Bean (Table II) amounted to 1.

`Cc1ccc(C)c(C2C(=O)CCC2=O)c1` [CH3 H CH3 H H]: the “Pre-emergent Herbicidal, Rye” value with Perennial rye grass (Table I) is 4. The “Post-Emergent Herbicidal, Corn” value in the assay with Corn (Table I) amounted to 2. For the same compound, the “Post-Emergent Herbicidal, Cotton” value in the assay with Cotton (Table I) is reported as 2. Also, the “Post-Emergent Herbicidal, Tomato” value in the assay on Tomato (Table I) stood at 1. For the same compound, in the assay on Crabgrass (Table I), the “Pre-emergent Herbicidal, Crabgrass” value is 2. Also, the “Pre-emergent Herbicidal, Mustard” value in the assay with Mustard (Table I) came to 2. In addition, in assay [1] (Table I), the “Pre-emergent Herbicidal, Amaranthus” value is given as 3. Moreover, the “Post-Emergent Herbicidal, Bean” value with Bean (Table I) was found to be 2.

As for `Cc1ccc(C2C(=O)CCC2=O)c(C)c1` [CH3 CH3 H H H, 2-(2',4'-dimethylphenyl)-1,3-cyclopentanedione], the “Pre-emergent Herbicidal, Rye” value with Perennial rye grass (Table I) and in the assay on Perennial rye grass (Table II) was 5 throughout. The “Post-Emergent Herbicidal, Corn” value in the assay on Corn (Table I) and with Corn (Table II) was 2 throughout. Besides, the “Post-Emergent Herbicidal, Cotton” value in the assay with Cotton (Table I) and in the assay on Cotton (Table II) was 1 each time. Further, the “Post-Emergent Herbicidal, Tomato” value in the assay with Tomato (Table I) and in the assay on Tomato (Table II) was 1 each time. Besides, the “Pre-emergent Herbicidal, Crabgrass” value in the assay on Crabgrass (Table I) and with Crabgrass (Table II) was 5 throughout. The “Pre-emergent Herbicidal, Mustard” value with Mustard (Table I) and with Mustard (Table II) was 3 each time. The “Pre-emergent Herbicidal, Amaranthus” value in assay [1] (Table I) and in assay [1] (Table II) was 5 each time. The “Post-Emergent Herbicidal, Bean” value in the assay with Bean (Table I) and in the assay on Bean (Table II) was 1 each time.

In the case of `Cc1ccccc1C1C(=O)c2ccccc2C1=O` [Reference I Page 3, Compound 1, reference compound], the “Pre-emergent Herbicidal, Rye” value in the assay on Perennial rye grass (Table II) was 1. Moreover, the “Post-Emergent Herbicidal, Corn” value with Corn (Table II) came out at 1. Moreover, the “Post-Emergent Herbicidal, Cotton” value in the assay on Cotton (Table II) turned out to be 1. Further, the “Post-Emergent Herbicidal, Tomato” value in the assay on Tomato (Table II) was 2. In addition, the “Pre-emergent Herbicidal, Crabgrass” value in the assay with Crabgrass (Table II) was 2. For the same compound, the “Pre-emergent Herbicidal, Mustard” value in the assay on Mustard (Table II) is on record as 1. In addition, the “Pre-emergent Herbicidal, Amaranthus” value in assay [1] (Table II) is reported as 2. The “Post-Emergent Herbicidal, Bean” value in the assay on Bean (Table II) was 2.

As for `Cc1ccc(C)c(C2C(=O)C3CCCCC3C2=O)c1` (centres unmarked) [CH3 H CH3 (CH2)4, 2-(2',5'-dimethylphenyl)-4,5,6,7,8,9-hexahydro-1,3-indandione], the “Pre-emergent Herbicidal, Rye” value with Perennial rye grass (Table I) and in the assay with Perennial rye grass (Table II) was 1 each time. The “Post-Emergent Herbicidal, Corn” value with Corn (Table I) and in the assay with Corn (Table II) was 1 in each case. Further, the “Post-Emergent Herbicidal, Cotton” value in the assay on Cotton (Table I) and with Cotton (Table II) was 1 in each case. The “Post-Emergent Herbicidal, Tomato” value with Tomato (Table I) and in the assay with Tomato (Table II) was 1 throughout. In addition, the “Pre-emergent Herbicidal, Crabgrass” value with Crabgrass (Table I) and in the assay with Crabgrass (Table II) was 1 each time. The “Pre-emergent Herbicidal, Mustard” value in the assay on Mustard (Table I) and in the assay with Mustard (Table II) was 1 each time. Also, the “Pre-emergent Herbicidal, Amaranthus” value in assay [1] (Table I) and in assay [1] (Table II) was 1 throughout. Moreover, the “Post-Emergent Herbicidal, Bean” value with Bean (Table I) and in the assay with Bean (Table II) was 1 throughout.
